Assay results: publication PMC5729604, “Dual inhibitors of hepatitis C virus and hepatocellular carcinoma: design, synthesis and docking studies” (Future Science OA, 2017)
“Also recorded” adds a separate entry of the source.

These compounds were tested on HepG2 cells infected with hepatitis C virus (assay: In vitro anti-HCV screening, qualitative RT-PCR of viral RNA). Details: HCV-infected HepG2 cells, RT-PCR.
Assay type: cell-based, HCV genotype-4
Description: The safe compounds on RBCs (5a-g, 5i-l, 5p-r, 5v-w, 6b-g) were screened for their in vitro anti-HCV activity using the HCC HepG2 cell line infected with the HCV. Monitoring of the HCV viremia pre- and post-antiviral therapy through the detection of viral RNA using qualitative reverse transcription-PCR (RT-PCR) was adopted in the present investigation. This technique was reported to be the most frequently used, reliable and sensitive technique. Inhibition of viral replication was detected by amplification of viral RNA segments by the RT-PCR technique both in the cultivated infected cells alone (as a positive control) and at the specified dose for each test compound at optimal temperature. The test compound was considered to be active when it can inhibit the viral replication inside the HCV-infected HepG2 cells, as evidenced by the disappearance of the viral RNA-amplified products detected by the RT-PCR (compared with positive control).
The used concentration of each compound was chosen to be lower than the LD0 on HepG2 cells. Therefore, 100% viability of HepG2 cells was maintained, to make sure that any inhibitory effect was due to anti-HCV activity rather than cytotoxic activity on HepG2 cells. Moreover, the used concentrations were also chosen to be lower than the LD0 on PBMCs. Consequently, these doses could be used for inhibition of HCV in normal cells infected with the virus.
HepG2 cells were washed twice in RPMI-1640 medium supplemented with 200 μM L-glutamine and […] HEPES buffer. The cells were suspended at 12 × 10^4 cells/ml in RPMI culture medium (RPMI supplemented medium and 10% FBS). The appropriate number of cells to be used was chosen to be 12 × 10^3 cells/well (100 μl of the prepared suspension), and the cells were left to adhere on the polystyrene […] plates in an incubator at 37°C, 5% CO2 and 95% humidity for 24 h. The cells were washed once using RPMI supplemented medium, then infected with 2% HCV-infected serum (the used serum was a pole of ten patients infected with HCV genotype-4 with viral loads: 3.2–9 million IU/ml, G4 HCV RNA) in RPMI culture medium containing 8% FBS. The used dose of each compound was chosen so as to maintain 100% viability of the HepG2 cell line (the dose was lower than the LD0 of each compound on HepG2 cells as calculated from the in vitro anticancer screening). It was reported that, cultured HepG2 cells lost their biotransformation activity due to decrease in cytochrome (CYP) transcription. This waived its effect on the compounds stability during the test. Negative control is HepG2 cells with culture medium without addition of HCV infected serum or addition of tested compounds. Positive control is HepG2 cells with culture medium and infected HCV serum but without addition of tested compounds. After addition of the compounds, the plates were incubated at 37°C, 5% CO2 and 95% humidity for 72 h, followed by RNA extraction. The RNA strand was detected by RT-PCR using HCV-specific primers to the […] region of the virus.
RNA was extracted from HepG2 cells using the method described by El-Awady et al.. Culture cells were mixed with 200 μl of 4 mol/l guanidinium isothiocyanate (Fischer Bioreagents) containing 25 mmol/l sodium citrate (MP Biomedicals, CA, USA), 0.5% sarkosyl (Fischer Bioreagents), 0.1 mol/l β-mercaptoethanol (MP Biomedicals), and 100 μl sodium acetate (Merck). The lysed cells were mixed with an equal volume of phenol, chloroform and isoamyl alcohol (25:24:1, pH 4; Fischer Bioreagents). After vortexing, the mixture was centrifuged (14,000 r.p.m. for 10 min) at 4°C. The aqueous layer was collected and mixed with an equal volume of isopropanol (Acros Organics, Geel, Belgium). After incubation at -20°C overnight, RNA was precipitated by centrifugation (14,000 r.p.m. for 30 min) at 4°C, and the precipitated RNA was washed twice with 70% ethanol. […]
`COc1ccc(-c2nn(-c3ccccc3)cc2C=C2SC(=NN=C(C)c3cc4ccccc4o3)N(C3CCCCC3)C2=O)cc1` [Compound 5l, 2-[1-(Benzofuran-2-yl)ethylidenehydrazono]-5-{[3-(4-methoxyphenyl)-1-phenyl-1H-pyrazol-4-yl]methylene}-3-cyclohexylthiazolidin-4-one] was tested, and the “in vitro anti-HCV activity, in words” value was “showed in vitro anti-HCV activity; also recorded: exhibited in vitro anti-HCV activity”.
For `CC(=NN=C1SC(=Cc2cn(-c3ccccc3)nc2-c2ccccc2)C(=O)N1c1ccc(Cl)cc1)c1nc2ccccc2[nH]1` [Compound 5p, 2-[1-(1H-Benzimidazole-2-yl)ethylidenehydrazono]-5-[(1,3-Diphenyl-1H-pyrazol-4-yl)methylene]-3-(4-chlorophenyl)thiazolidin-4-one], the “in vitro anti-HCV activity, in words” value was “showed in vitro anti-HCV activity; also recorded: exhibited in vitro anti-HCV activity”.
In the case of `CC(=NN=C1SC(=Cc2cn(-c3ccccc3)nc2-c2ccccc2)C(=O)N1C1CCCCC1)c1nc2ccccc2[nH]1` [Compound 5v, 2-[1-(1H-Benzimidazole-2-yl)ethylidenehydrazono]-5-[(1,3-Diphenyl-1H-pyrazol-4-yl)methylene]-3-cyclohexylthiazolidin-4-one], the “in vitro anti-HCV activity, in words” value is reported as “showed in vitro anti-HCV activity; also recorded: exhibited in vitro anti-HCV activity”.

Same assay, conditions: at the used dose (below LD0 on HepG2 and PBMCs), 72 h; Positive = disappearance of viral RNA-amplified product (174 bp)
For `COc1ccc(-c2nn(-c3ccccc3)cc2C=C2SC(=NN=C(C)c3cc4ccccc4o3)N(C3CCCCC3)C2=O)cc1` [Compound 5l, 2-[1-(Benzofuran-2-yl)ethylidenehydrazono]-5-{[3-(4-methoxyphenyl)-1-phenyl-1H-pyrazol-4-yl]methylene}-3-cyclohexylthiazolidin-4-one], the “Result (anti-HCV screening)” value was “Positive”.
In the case of `CC(=NN=C1SC(=Cc2cn(-c3ccccc3)nc2-c2ccccc2)C(=O)N1c1ccc(Cl)cc1)c1nc2ccccc2[nH]1` [Compound 5p, 2-[1-(1H-Benzimidazole-2-yl)ethylidenehydrazono]-5-[(1,3-Diphenyl-1H-pyrazol-4-yl)methylene]-3-(4-chlorophenyl)thiazolidin-4-one], the “Result (anti-HCV screening)” value is reported as “Positive”.
`CC(=NN=C1SC(=Cc2cn(-c3ccccc3)nc2-c2ccccc2)C(=O)N1C1CCCCC1)c1cc2ccccc2o1` [Compound 5j, 2-[1-(Benzofuran-2-yl)ethylidenehydrazono]-5-[(1,3-Diphenyl-1H-pyrazol-4-yl)methylene]-3-cyclohexylthiazolidin-4-one] was tested, and the “Result (anti-HCV screening)” value was “Negative”.
In the case of `CC(=NN=C1SC(=C2C(=O)Nc3ccccc32)C(=O)N1c1ccc(Cl)cc1)c1cc2ccccc2o1` [Compound 6b, 2-[1-(Benzofuran-2-yl)ethylidenehydrazono]-5-(2-oxoindolin-3-ylidene)-3-(4-chlorophenyl)thiazolidin-4-one], the “Result (anti-HCV screening)” value is reported as “Negative”.
In the case of `COc1ccc(-c2nn(-c3ccccc3)cc2C=C2SC(=NN=C(C)c3cc4ccccc4o3)N(c3ccccc3)C2=O)cc1` [Compound 5c, 2-[1-(Benzofuran-2-yl)ethylidenehydrazono]-5-{[3-(4-methoxyphenyl)-1-phenyl-1H-pyrazol-4-yl]methylene}-3-phenylthiazolidin-4-one], the “Result (anti-HCV screening)” value is reported as “Negative”.
`CC(=NN=C1SC(=Cc2cn(-c3ccccc3)nc2-c2ccc(Cl)cc2)C(=O)N1c1ccccc1)c1cc2ccccc2o1` [Compound 5b, 2-[1-(Benzofuran-2-yl)ethylidenehydrazono]-5-{[3-(4-chlorophenyl)-1-phenyl-1H-pyrazol-4-yl]methylene}-3-phenylthiazolidin-4-one] was tested, and the “Result (anti-HCV screening)” value was “Negative”.
With `CC(=NN=C1SC(=Cc2cn(-c3ccccc3)nc2-c2ccc(Cl)cc2)C(=O)N1C1CCCCC1)c1cc2ccccc2o1` [Compound 5k, 2-[1-(Benzofuran-2-yl)ethylidenehydrazono]-5-{[3-(4-chlorophenyl)-1-phenyl-1H-pyrazol-4-yl]methylene}-3-cyclohexylthiazolidin-4-one] the “Result (anti-HCV screening)” value was “Negative”.
With `COc1ccc(-c2nn(-c3ccccc3)cc2C=C2SC(=NN=C(C)c3cc4ccccc4o3)N(c3ccc(Cl)cc3)C2=O)cc1` [Compound 5f, 2-[1-(Benzofuran-2-yl)ethylidenehydrazono]-5-{[3-(4-methoxyphenyl)-1-phenyl-1H-pyrazol-4-yl]methylene}-3-(4-chlorophenyl)thiazolidin-4-one] the “Result (anti-HCV screening)” value was “Negative”.
`COc1ccc(-c2nn(-c3ccccc3)cc2C=C2SC(=NN=C(C)c3cc4ccccc4o3)N(c3ccc(OC)cc3)C2=O)cc1` [Compound 5i, 2-[1-(Benzofuran-2-yl)ethylidenehydrazono]-5-{[3-(4-methoxyphenyl)-1-phenyl-1H-pyrazol-4-yl]methylene}-3-(4-methoxyphenyl)thiazolidin-4-one] was tested, and the “Result (anti-HCV screening)” value was “Negative”.
With `CC(=NN=C1SC(=Cc2cn(-c3ccccc3)nc2-c2ccccc2)C(=O)N1C1CCCCC1)c1nc2ccccc2[nH]1` [Compound 5v, 2-[1-(1H-Benzimidazole-2-yl)ethylidenehydrazono]-5-[(1,3-Diphenyl-1H-pyrazol-4-yl)methylene]-3-cyclohexylthiazolidin-4-one] the “Result (anti-HCV screening)” value was “Positive”.
With `CC(=NN=C1SC(=C2C(=O)Nc3ccccc32)C(=O)N1c1ccccc1)c1nc2ccccc2[nH]1` [Compound 6e, 2-[1-(1H-Benzimidazole-2-yl)ethylidenehydrazono]-5-(2-oxoindolin-3-ylidene)-3-phenylthiazolidin-4-one] the “Result (anti-HCV screening)” value was “Negative”.
With `COc1ccc(N2C(=O)C(=C3C(=O)Nc4ccccc43)SC2=NN=C(C)c2nc3ccccc3[nH]2)cc1` [Compound 6g, 2-[1-(1H-Benzimidazole-2-yl)ethylidenehydrazono]-5-(2-oxoindolin-3-ylidene)-3-(4-methoxyphenyl)thiazolidin-4-one] the “Result (anti-HCV screening)” value was “Negative”.
In the case of `COc1ccc(N2C(=O)C(=Cc3cn(-c4ccccc4)nc3-c3ccccc3)SC2=NN=C(C)c2cc3ccccc3o2)cc1` [Compound 5g, 2-[1-(Benzofuran-2-yl)ethylidenehydrazono]-5-[(1,3-Diphenyl-1H-pyrazol-4-yl)methylene]-3-(4-methoxyphenyl)thiazolidin-4-one], the “Result (anti-HCV screening)” value is reported as “Negative”.
For `COc1ccc(N2C(=O)C(=C3C(=O)Nc4ccccc43)SC2=NN=C(C)c2cc3ccccc3o2)cc1` [Compound 6c, 2-[1-(Benzofuran-2-yl)ethylidenehydrazono]-5-(2-oxoindolin-3-ylidene)-3-(4-methoxyphenyl)thiazolidin-4-one], the “Result (anti-HCV screening)” value was “Negative”.
For `CC(=NN=C1SC(=Cc2cn(-c3ccccc3)nc2-c2ccc(Cl)cc2)C(=O)N1C1CCCCC1)c1nc2ccccc2[nH]1` [Compound 5w, 2-[1-(1H-Benzimidazole-2-yl)ethylidenehydrazono]-5-{[3-(4-chlorophenyl)-1-phenyl-1H-pyrazol-4-yl]methylene}-3-cyclohexylthiazolidin-4-one], the “Result (anti-HCV screening)” value was “Negative”.
`CC(=NN=C1SC(=C2C(=O)Nc3ccccc32)C(=O)N1c1ccc(Cl)cc1)c1nc2ccccc2[nH]1` [Compound 6f, 2-[1-(1H-Benzimidazole-2-yl)ethylidenehydrazono]-5-(2-oxoindolin-3-ylidene)-3-(4-chlorophenyl)thiazolidin-4-one] was tested, and the “Result (anti-HCV screening)” value was “Negative”.
With `COc1ccc(-c2nn(-c3ccccc3)cc2C=C2SC(=NN=C(C)c3nc4ccccc4[nH]3)N(c3ccc(Cl)cc3)C2=O)cc1` [Compound 5r, 2-[1-(1H-Benzimidazole-2-yl)ethylidenehydrazono]-5-{[3-(4-methoxyphenyl)-1-phenyl-1H-pyrazol-4-yl]methylene}-3-(4-chlorophenyl)thiazolidin-4-one] the “Result (anti-HCV screening)” value was “Negative”.
With `CC(=NN=C1SC(=Cc2cn(-c3ccccc3)nc2-c2ccc(Cl)cc2)C(=O)N1c1ccc(Cl)cc1)c1cc2ccccc2o1` [Compound 5e, 2-[1-(Benzofuran-2-yl)ethylidenehydrazono]-5-{[3-(4-chlorophenyl)-1-phenyl-1H-pyrazol-4-yl]methylene}-3-(4-chlorophenyl)thiazolidin-4-one] the “Result (anti-HCV screening)” value was “Negative”.
`CC(=NN=C1SC(=C2C(=O)Nc3ccccc32)C(=O)N1C1CCCCC1)c1cc2ccccc2o1` [Compound 6d, 2-[1-(Benzofuran-2-yl)ethylidenehydrazono]-5-(2-oxoindolin-3-ylidene)-3-cyclohexylthiazolidin-4-one] was tested, and the “Result (anti-HCV screening)” value was “Negative”.
`CC(=NN=C1SC(=Cc2cn(-c3ccccc3)nc2-c2ccccc2)C(=O)N1c1ccc(Cl)cc1)c1cc2ccccc2o1` [Compound 5d, 2-[1-(Benzofuran-2-yl)ethylidenehydrazono]-5-[(1,3-Diphenyl-1H-pyrazol-4-yl)methylene]-3-(4-chlorophenyl)thiazolidin-4-one] was tested, and the “Result (anti-HCV screening)” value was “Negative”.
